Assay [1] deals with T1, human dihydrofolate reductase (HsDHFR) (Homo sapiens, UniProt P00374).
T1 construct: gene DHFR
T1 sequence (P00374 1-187): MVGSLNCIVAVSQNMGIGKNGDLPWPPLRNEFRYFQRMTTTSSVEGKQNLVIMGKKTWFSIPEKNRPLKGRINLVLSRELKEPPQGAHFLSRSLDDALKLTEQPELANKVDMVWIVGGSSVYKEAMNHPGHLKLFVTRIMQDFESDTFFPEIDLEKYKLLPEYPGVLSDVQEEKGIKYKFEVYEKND
Nature of the assay: spectrophotometric DHFR assay at […] nm (NADPH/DHF consumption), purified enzyme. It counts as biochemical.

Assay [2] has as its target P. vivax dihydrofolate reductase (PvDHFR) (Plasmodium vivax, UniProt O02604). The assay is described as above. It counts as biochemical.

SMILES strings stand for the structures.

Sequence of P. vivax dihydrofolate reductase (PvDHFR) (O02604 1-240): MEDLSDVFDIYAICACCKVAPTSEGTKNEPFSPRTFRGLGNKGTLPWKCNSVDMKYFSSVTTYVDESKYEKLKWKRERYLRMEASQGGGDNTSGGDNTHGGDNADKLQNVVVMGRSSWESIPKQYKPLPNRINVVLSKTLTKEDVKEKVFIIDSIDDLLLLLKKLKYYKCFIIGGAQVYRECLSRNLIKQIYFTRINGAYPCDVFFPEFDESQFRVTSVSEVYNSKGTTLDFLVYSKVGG

Usually IC50 stands for the concentration needed to halve the response being measured. A lower IC50 goes with greater potency in that assay. As to `Oc1cc(Cl)ccc1Oc1ccc(Cl)cc1Cl` [triclosan], the IC50 in assay [1] was determined as 17.2 ± 4.9 µM; in assay [2] it was 0.775 ± 0.384 µM.

These data come from publication PMC5773535, “Plasmodium dihydrofolate reductase is a second enzyme target for the antimalarial action of triclosan” (Scientific Reports, 2018).
